Test results as given in paper PMC9482650, “Quantitative fragmentomics allow affinity mapping of interactomes” (Nature Communications, 2022).
Like-named read-outs stand apart in the source and are kept apart here. Ends that are not written are not given here.

Tests used:
Assay in all cases: Holdup assay
Format in all cases: binding
PDZRN4_1 PDZ = target: T1, PDZRN4_1 PDZ (Homo sapiens, UniProt Q6ZMN7)
T1 sequence (Q6ZMN7 224-314 limits assumed): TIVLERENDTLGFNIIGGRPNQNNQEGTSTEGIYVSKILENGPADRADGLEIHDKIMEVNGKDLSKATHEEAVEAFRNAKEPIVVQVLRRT

LIN7B PDZ = target: T2, LIN7B PDZ (Homo sapiens, UniProt Q9HAP6)
T2 sequence (Q9HAP6 93-175 limits assumed): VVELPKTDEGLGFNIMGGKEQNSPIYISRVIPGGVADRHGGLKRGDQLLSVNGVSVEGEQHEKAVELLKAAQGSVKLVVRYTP

PDZRN3_1 PDZ = target: T3, PDZRN3_1 PDZ (Homo sapiens, UniProt Q9UPQ7)
T3 sequence (Q9UPQ7 249-339 limits assumed): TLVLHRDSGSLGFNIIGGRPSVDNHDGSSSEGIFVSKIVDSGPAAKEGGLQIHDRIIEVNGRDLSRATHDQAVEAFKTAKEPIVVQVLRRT

SNX27 PDZ = SNX27 PDZ (Homo sapiens, UniProt Q96L92); conditions: composite holdup affinity; 0.00=below quantification threshold; read-out: COMP pKd (converted)
MAST1 PDZ = MAST1 PDZ (Homo sapiens, UniProt Q9Y2H9)
MAGI2_4 PDZ = MAGI2_4 PDZ (Homo sapiens, UniProt Q86UL8)
DFNB31_1 PDZ = DFNB31_1 PDZ (Homo sapiens, UniProt Q9P202); conditions: composite holdup affinity; 0.00=below quantification threshold; read-out: COMP pKd (converted)
ARHGEF12 PDZ = target: T4, ARHGEF12 PDZ (Homo sapiens, UniProt Q9NZN5)
T4 sequence (Q9NZN5 72-151 limits assumed): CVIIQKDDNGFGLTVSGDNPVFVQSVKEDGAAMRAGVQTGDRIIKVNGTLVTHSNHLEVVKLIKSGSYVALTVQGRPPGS

SCRIB_3 PDZ = target: T5, SCRIB_3 PDZ (Homo sapiens, UniProt Q14160)
T5 sequence (Q14160 1004-1093 limits assumed): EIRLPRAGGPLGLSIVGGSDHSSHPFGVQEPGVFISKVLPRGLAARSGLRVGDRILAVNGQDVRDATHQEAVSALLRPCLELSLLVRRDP

RHPN1 PDZ = RHPN1 PDZ (Homo sapiens, UniProt Q8TCX5)
SNTG1 PDZ = target: T6, SNTG1 PDZ (Homo sapiens, UniProt Q9NSN8)
T6 sequence (Q9NSN8 57-140 limits assumed): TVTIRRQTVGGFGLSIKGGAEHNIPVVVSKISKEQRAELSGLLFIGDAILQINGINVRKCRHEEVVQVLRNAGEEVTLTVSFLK

LIN7A PDZ = LIN7A PDZ (Homo sapiens, UniProt O14910)
SYNJ2BP PDZ = target: T7, SYNJ2BP PDZ (Homo sapiens, UniProt P57105)
T7 sequence (P57105 13-100 limits assumed): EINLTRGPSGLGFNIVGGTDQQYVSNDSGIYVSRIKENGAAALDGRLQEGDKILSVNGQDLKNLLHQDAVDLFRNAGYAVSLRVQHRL

LAP2 PDZ = LAP2 PDZ (Homo sapiens, UniProt Q96RT1)
TJP2_1 PDZ = TJP2_1 PDZ (Homo sapiens, UniProt Q9UDY2)
DLG3_3 PDZ = target: T8, DLG3_3 PDZ (Homo sapiens, UniProt Q92796)
T8 sequence (Q92796 379-465 limits assumed): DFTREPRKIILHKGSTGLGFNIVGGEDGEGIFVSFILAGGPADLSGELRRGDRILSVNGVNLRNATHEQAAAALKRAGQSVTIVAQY

PDZD2_2 PDZ = target: T9, PDZD2_2 PDZ (Homo sapiens, UniProt O15018)
T9 sequence (O15018 334-419 limits assumed): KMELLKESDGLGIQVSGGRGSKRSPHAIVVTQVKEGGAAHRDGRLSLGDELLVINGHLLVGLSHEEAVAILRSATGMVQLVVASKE

MAGI2_3 PDZ = MAGI2_3 PDZ (Homo sapiens, UniProt Q86UL8)
LNX1_4 PDZ = LNX1_4 PDZ (Homo sapiens, UniProt Q8TBB1)
DLG2_1 PDZ = DLG2_1 PDZ (Homo sapiens, UniProt Q15700)
CNKSR3 PDZ = CNKSR3 PDZ (Homo sapiens, UniProt Q6P9H4)
Text: Supplement 41467_2022_33018_MOESM4_ESM.xlsx, sheet "PPI_convert" | column: CNKSR3

LRRC7 PDZ = LRRC7 PDZ (Homo sapiens, UniProt Q96NW7)
LNX2_2 PDZ = LNX2_2 PDZ (Homo sapiens, UniProt Q8N448)
GIPC1 PDZ = GIPC1 PDZ (Homo sapiens, UniProt O14908)
Text: Supplement 41467_2022_33018_MOESM4_ESM.xlsx, sheet "PPI_convert" | column: GIPC1

FRMPD2_1 PDZ = FRMPD2_1 PDZ (Homo sapiens, UniProt Q68DX3)
PDZRN3_2 PDZ = PDZRN3_2 PDZ (Homo sapiens, UniProt Q9UPQ7); conditions: sheet PPI_convert; read-out: affinity to PDZ PDZRN3_2 (converted)
MPDZ_4 PDZ = MPDZ_4 PDZ (Homo sapiens, UniProt O75970); conditions: sheet PPI_convert; read-out: affinity to PDZ MPDZ_4 (converted)
Text: Supplement 41467_2022_33018_MOESM4_ESM.xlsx, sheet "PPI_convert" | column: MPDZ_4

[1] = composite holdup affinity, 0.00=below quantification threshold, read-out: COMP pKd (converted)

MAGI2_4 PDZ, sequence (Q86UL8 778-860 limits assumed): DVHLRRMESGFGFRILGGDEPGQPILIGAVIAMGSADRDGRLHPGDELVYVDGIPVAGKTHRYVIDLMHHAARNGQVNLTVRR
LAP2 PDZ, sequence (Q96RT1 1321-1410 limits assumed): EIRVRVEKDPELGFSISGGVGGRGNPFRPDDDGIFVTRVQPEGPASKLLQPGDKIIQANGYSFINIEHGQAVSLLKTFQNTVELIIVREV
RHPN1 PDZ, sequence (Q8TCX5 513-592 limits assumed): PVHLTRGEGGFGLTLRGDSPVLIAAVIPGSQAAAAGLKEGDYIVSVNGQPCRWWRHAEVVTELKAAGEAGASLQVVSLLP
LIN7A PDZ, sequence (O14910 108-190 limits assumed): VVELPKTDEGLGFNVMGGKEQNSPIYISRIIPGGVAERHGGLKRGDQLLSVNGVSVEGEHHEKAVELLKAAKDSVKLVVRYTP
LNX1_4 PDZ, sequence (Q8TBB1 638-724 limits assumed): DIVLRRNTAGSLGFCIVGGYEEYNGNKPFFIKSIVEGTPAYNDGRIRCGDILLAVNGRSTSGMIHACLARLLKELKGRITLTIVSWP
DLG2_1 PDZ, sequence (Q15700 98-184): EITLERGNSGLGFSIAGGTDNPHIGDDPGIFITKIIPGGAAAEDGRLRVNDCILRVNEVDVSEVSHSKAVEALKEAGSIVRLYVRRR
GIPC1 PDZ, sequence (O14908 133-213 limits assumed): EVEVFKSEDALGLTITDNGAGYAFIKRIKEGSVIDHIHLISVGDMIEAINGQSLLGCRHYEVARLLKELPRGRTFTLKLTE
MAST1 PDZ, sequence (Q9Y2H9 967-1055 limits assumed): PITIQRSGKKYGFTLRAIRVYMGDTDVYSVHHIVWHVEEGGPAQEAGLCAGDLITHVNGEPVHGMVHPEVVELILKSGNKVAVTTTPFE
CNKSR3 PDZ, sequence (Q6P9H4 211-293 limits assumed): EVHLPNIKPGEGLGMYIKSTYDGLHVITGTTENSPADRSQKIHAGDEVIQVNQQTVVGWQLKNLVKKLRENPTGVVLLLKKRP
FRMPD2_1 PDZ, sequence (Q68DX3 775-861 limits assumed): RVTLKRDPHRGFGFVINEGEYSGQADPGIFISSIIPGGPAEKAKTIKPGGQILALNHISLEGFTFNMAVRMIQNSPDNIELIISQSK
LRRC7 PDZ, sequence (Q96NW7 1450-1535 limits assumed): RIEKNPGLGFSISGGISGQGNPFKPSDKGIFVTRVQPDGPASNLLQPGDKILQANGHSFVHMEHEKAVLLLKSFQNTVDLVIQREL
MAGI2_3 PDZ, sequence (Q86UL8 605-683 limits assumed): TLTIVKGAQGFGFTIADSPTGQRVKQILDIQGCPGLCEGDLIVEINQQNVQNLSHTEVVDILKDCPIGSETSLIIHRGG
TJP2_1 PDZ, sequence (Q9UDY2 33-120 limits assumed): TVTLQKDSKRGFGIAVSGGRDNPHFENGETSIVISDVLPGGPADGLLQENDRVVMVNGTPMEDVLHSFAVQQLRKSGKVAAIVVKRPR
DFNB31_1 PDZ, sequence (Q9P202 140-223 limits assumed): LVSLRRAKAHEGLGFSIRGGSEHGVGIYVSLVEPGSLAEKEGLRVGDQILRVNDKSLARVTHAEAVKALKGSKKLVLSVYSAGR
PDZRN3_2 PDZ, sequence (Q9UPQ7 419-503 limits assumed): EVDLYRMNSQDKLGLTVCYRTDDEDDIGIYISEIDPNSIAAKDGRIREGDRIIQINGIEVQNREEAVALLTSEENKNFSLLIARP
MPDZ_4 PDZ, sequence (O75970 553-634 limits assumed): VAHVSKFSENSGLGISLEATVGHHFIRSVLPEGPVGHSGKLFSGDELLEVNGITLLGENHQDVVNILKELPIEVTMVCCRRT
LNX2_2 PDZ, sequence (Q8N448 339-422 limits assumed): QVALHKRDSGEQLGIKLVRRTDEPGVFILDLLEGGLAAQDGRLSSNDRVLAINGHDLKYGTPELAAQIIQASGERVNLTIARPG

SRRPRTETQV [HPV31-E6]
Kd (PDZRN4_1 PDZ; [1]): 64.6 µM
Kd (LIN7B PDZ; [1]): 209 µM
Kd (PDZRN3_1 PDZ; [1]): 81.3 µM
Kd (SNX27 PDZ): 22.9 µM
Kd (MAST1 PDZ; [1]): 38 µM
Kd (MAGI2_4 PDZ; [1]): 33.1 µM
Kd (DFNB31_1 PDZ): 282 µM
Kd (ARHGEF12 PDZ; [1]): 138 µM
Kd (SCRIB_3 PDZ; [1]): 27.5 µM
Kd (RHPN1 PDZ; [1]): 182 µM
Kd (SNTG1 PDZ; [1]): 58.9 µM
Kd (LIN7A PDZ; [1]): 309 µM
Kd (SYNJ2BP PDZ; [1]): 3.89 µM
Kd (LAP2 PDZ; [1]): 126 µM
Kd (TJP2_1 PDZ; [1]): 219 µM
Kd (DLG3_3 PDZ; [1]): 7.94 µM
Kd (PDZD2_2 PDZ; [1]): 200 µM
Kd (MAGI2_3 PDZ; [1]): 79.4 µM

CC(C)C[C@H](NC(=O)[C@@H](N)CCCNC(=N)N)C(=O)N[C@@H](CCC(N)=O)C(=O)N[C@@H](CCCNC(=N)N)C(=O)N[C@@H](CCCNC(=N)N)C(=O)N[C@@H](CCCNC(=N)N)C(=O)N[C@@H](CCC(=O)O)C(=O)N[C@H](C(=O)N[C@@H](CCC(N)=O)C(=O)N[C@H](C(=O)O)C(C)C)[C@@H](C)O [HPV18-E6]
Kd (PDZRN4_1 PDZ): 33.1 µM
Kd (LNX1_4 PDZ): 93.3 µM
Kd (LIN7B PDZ): 263 µM
Kd (PDZRN3_1 PDZ): 15.1 µM
Kd (SNX27 PDZ): 28.2 µM
Kd (MAST1 PDZ): 4.68 µM
Kd (DLG2_1 PDZ): 7.76 µM
Kd (MAGI2_4 PDZ): 52.5 µM
Kd (CNKSR3 PDZ): 79.4 µM
Kd (ARHGEF12 PDZ): 123 µM
Kd (SCRIB_3 PDZ): 14.5 µM
Kd (LRRC7 PDZ): 724 µM
Kd (RHPN1 PDZ): 234 µM
Kd (SNTG1 PDZ): 117 µM
Kd (LNX2_2 PDZ): 676 µM
Kd (LIN7A PDZ): 398 µM
Kd (SYNJ2BP PDZ): 4.47 µM
Kd (LAP2 PDZ): 245 µM
Kd (TJP2_1 PDZ): 129 µM
Kd (DLG3_3 PDZ): 3.63 µM
Kd (PDZD2_2 PDZ): 437 µM
Kd (GIPC1 PDZ): 36.3 µM
Kd (MAGI2_3 PDZ): 70.8 µM
Kd (FRMPD2_1 PDZ): 79.4 µM

SKPTRRETEV [HPV35-E6]
Kd (PDZRN4_1 PDZ; [1]): 41.7 µM
Kd (LNX1_4 PDZ; sheet PPI_convert, read-out: affinity to PDZ LNX1_4 (converted)): 324 µM
Kd (LIN7B PDZ; [1]): 324 µM
Kd (PDZRN3_2 PDZ): 269 µM
Kd (PDZRN3_1 PDZ; [1]): 12.9 µM
Kd (SNX27 PDZ): 21.9 µM
Kd (DLG2_1 PDZ; sheet PPI_convert, read-out: affinity to PDZ DLG2_1 (converted)): 12.3 µM
Kd (MAGI2_4 PDZ; [1]): 45.7 µM
Kd (CNKSR3 PDZ; sheet PPI_convert, read-out: affinity to PDZ CNKSR3 (converted)): 269 µM
Kd (MPDZ_4 PDZ): 282 µM
Kd (ARHGEF12 PDZ; [1]): 87.1 µM
Kd (SCRIB_3 PDZ; [1]): 12.9 µM
Kd (LRRC7 PDZ; [1]): 257 µM
Kd (SNTG1 PDZ; [1]): 49 µM
Kd (SYNJ2BP PDZ; [1]): 2.04 µM
Kd (LAP2 PDZ; [1]): 204 µM
Kd (DLG3_3 PDZ; [1]): 6.61 µM
Kd (PDZD2_2 PDZ; [1]): 166 µM
Kd (GIPC1 PDZ; sheet PPI_convert, read-out: affinity to PDZ GIPC1 (converted)): 20.4 µM
Kd (FRMPD2_1 PDZ; [1]): 324 µM
